Results taken from ChEMBL document CHEMBL1126531, “Synthesis of N-Acetylhemiaminal metabolites of opc-21268, vasopressin V1 receptor antagonist” (Bioorg Med Chem Lett, 1993).

Target: Vasopressin V1 receptor (Homo sapiens, UniProt P37288+P47901)
Experiment: Compound was evaluated for antagonistic activity against vasopressin V1 receptor
Format: functional

IC50	Structure (SMILES)
0.6 µM	CC(=O)NC(O)CCOc1ccc(C(=O)N2CCC(N3C(=O)CCc4ccccc43)CC2)cc1 (stereo not drawn)
3.3 µM	CC(=O)NC(O)CCOc1ccc(C(=O)N2CCC(n3c(=O)ccc4ccccc43)CC2)cc1 (stereo not drawn)

Structure (SMILES)	IC50
CC(=O)NCCCOc1ccc(C(=O)N2CCC(N3C(=O)CCc4ccccc43)CC2)cc1	0.44 µM
